# Measurements reported in US6964949B2, “Pharmaceutical compositions for promoting the growth of gram-positive bacilli and increasing the acidity in the vagina and the use thereof” (Shanghai Jiao Da Onlly Co., Ltd., priority 2000, dated 2005).
# Experiments:
# Format in all cases: cell-based
# [1] = system: Gram-negative bacilli; assay: Experimental Example 1: bacterial vaginosis specimen suspension cultured in the composition, Gram smear; conditions: 10.0% sucrose, 1.0% yeast extract, 1.6% xanthan gum, pH 5.0, anaerobic, 37° C.
# Protocol: (§1) • (1) The preparation of the composition: Sucrose was used to prepare the following composition according to the method mentioned above: sucrose 10.0% (W/V), yeast extract 1.0% (W/V), Xanthan gum 1.6% (W/V), pH 5.0; then filled the composition into the tubes after sterilization, with each tube containing 5 ml, and pre-reduced for use. • (2) Specimen suspension: Vaginal secretion was taken from one of the patients suffering from typical bacterial vaginosis with a cotton swab, then the swab was washed in 2 ml sterilized Trypcase-soy Broth immediately, and thus the specimen suspension was ready. […] The tubes were placed in an incubator for cultivation, at 37° C., anaerobically. Then, culture samples were taken from the tubes at 10 hours and 24 hours later respectively. The Gram smears of the samples were observed and the pH values of the samples were measured.
# [2] = system: Gram-negative cocci; assay: as above; conditions: 10.0% sucrose, 1.0% yeast extract, 1.6% xanthan gum, pH 5.0, anaerobic, 37° C.
# Protocol: as §1
# [3] = system: Gram-positive bacilli; assay: as above; conditions: 10.0% sucrose, 1.0% yeast extract, 1.6% xanthan gum, pH 5.0, anaerobic, 37° C.
# Protocol: as §1
# [4] = system: Gram-positive cocci; assay: as above; conditions: 10.0% sucrose, 1.0% yeast extract, 1.6% xanthan gum, pH 5.0, anaerobic, 37° C.
# Protocol: as §1
# [5] = system: Gram-positive cocci; assay: Experiment Example 2: comparison of saccharides, specimen culture, Gram smear; conditions: 10.0% saccharide, 1.0% yeast extract, 1.6% xanthan gum (dextrin 0.5%, starch none), pH 6.2, candle jar, 37° C.
# [6] = system: vaginal secretion specimen of a patient suffering from typical bacterial vaginosis; assay: Experiment Example 2: pH of culture samples (production of acids); conditions: for pH values in the tube compared with the other tubes: 10% saccharide tube, after 24 or 48 hours culture; for pH, 24 hours-culture / pH, 48 hours-culture: 10.0% saccharide, 1.0% yeast extract, 1.6% xanthan gum (dextrin 0.5%, starch none), pH 6.2, candle jar, 37° C.
# [7] = system: vaginal secretion specimen of a patient suffering from typical bacterial vaginosis; assay: Experiment Example 3: pH of culture samples (production of acids); conditions: 2.5% saccharide, 1.0% yeast extract, 1.6% xanthan gum, pH 6.2, candle jar, 37° C.
# Protocol: • (1) The preparation of the compositions: Maltose and sucrose were used respectively to prepare the following composition according to the methods mentioned above: • A. 2.5% maltose, 1.0% yeast extract, 1.6% xanthan gum, pH adjusted to 6.2; • B. 2.5% sucrose, 1.0 yeast extract, 1.6% xanthan gum, pH adjusted to 6.2; • (2) The preparation of the test tubes: Compositions as prepared above were filled into the test tubes, with each tube containing 5 ml, sterilized, and kept until use for experiment. • (3) Specimen suspension: Vaginal secretion was taken from one of the patients suffering from typical bacterial vaginosis with a cotton swab, then the swab was washed in 2 ml sterilized Trypcase-soy Broth immediately, and thus the specimen suspension was ready. […] Then the tubes were placed in a candle jar and cultivated at 37° C. After 24 hours and 48 hours' culture, culture samples were taken respectively from each of the tubes, then the Gram smears of the samples were observed and the pH values of culture samples were tested.
Structure (SMILES),"Bacteria G − b (Gram-negative bacilli), 10 hours-culture ([1]; 10 hours)","Bacteria G − b (Gram-negative bacilli), 24 hours-culture ([1]; 24 hours)","Bacteria G − c (Gram-negative cocci), 24 hours-culture [2]","Bacteria G + b (Gram-positive bacilli), 10 hours-culture ([3]; 10 hours)","Bacteria G + b (Gram-positive bacilli), 24 hours-culture ([3]; 24 hours)","Bacteria G + c (Gram-positive cocci), 24 hours-culture [4]","Bacteria G + c (Gram-positive cocci), 24 hours-culture [5]","Bacteria G + c (Gram-positive cocci), 48 hours-culture [5]",pH values in the tube compared with the other tubes [6],"pH, 24 hours-culture [6]","pH, 48 hours-culture [6]","pH, 24 hours-culture [7]","pH, 48 hours-culture [7]"
"OC[C@H]1O[C@@](CO)(O[C@H]2O[C@H](CO)[C@@H](O)[C@H](O)[C@H]2O)[C@@H](O)[C@@H]1O [Sucrose, sucrose]","G − b, ++ (About 10-99 bacteria per field of vision under oil-immersion lens)","G − b, ++ (About 10-99 bacteria per field of vision under oil-immersion lens)","G − c, + (1-9 bacteria per field of vision under oil-immersion lens)","G + b, +++ (About 100 bacteria or more per field vision under oil-immersion lens, even uncountable)","G + b, ++++","G + C, ++ (About 10-99 bacteria per field of vision under oil-immersion lens)","G + c, + (1-9 bacteria per field of vision under oil-immersion lens)","G + c, + (1-9 bacteria per field of vision under oil-immersion lens)",lower than that of the other tubes,4.8-5.1,4.6-4.8,6.2,6.7
"OC[C@H]1O[C@H](O[C@H]2[C@H](O)[C@@H](O)[C@H](O)O[C@@H]2CO)[C@H](O)[C@@H](O)[C@@H]1O [Maltose, maltose]",–,–,–,–,–,–,"G + c, ++ (About 10-99 bacteria per field of vision under oil-immersion lens)","G + c, + (1-9 bacteria per field of vision under oil-immersion lens)",lower than that of the other tubes,4.6-48,4.4-4.6,7.0,6.4
